Series [1] concerns primary cell culture of rat cortical neurons. Nature of the series: Morphological evaluation of neurite length (MAP2 staining) in primary cultures. The class given is cell-based. To be noted: for Increase respect to control (culture A): neurite length relative to control culture A; for Increase respect to control (culture A) / Increase of average neurite length: overall concentration 10 μM (culture B: 40 ng mL−1 bFGF), 6 days incubation; for Increase of average neurite length: control culture A 280; for Effect on neurite extension/length (in words): overall concentration 10 μM, compared to control culture A. The method, then:
Eight primary cellular cultures were prepared as described in Abe K et al. “Effects of recombinant human basic fibroblast growth factor and its modified protein CS23 on survival of primary cultured neurons from various regions of fetal rat brain.”, Jpn J Pharmacol 1990, 53 (2): 221-7. All operations were carried out under sterile conditions.
Neuronal cells were separated from cerebral hemispheres of rat fetuses of 18 days (Japan SLC, Inc.) and suspended in 10% FBS/MEM, then seeded at 9000 cells cm^−2 in poly-L-lysine plates.
After 24 hours, the culture medium was replaced with a serum-free medium, specific for the growth of neurons (Neurobasal Medium) supplemented with B27.
After 6 days incubation, the cells of the eight cultures were fixed with 4% formaldehyde.
The eight cultures were then evaluated regarding the length of neurites at the microscopic level. The neurons were subjected to immunohistochemical staining for the microtubule-associated protein-2 (MAP2) according to the histochemical method for the length of neurites, as described in Fukuyama Y et al. “Neurotrophic activity of honokiol on the cultures of fetal rat cortical neurons” Bioorg. Med Chem. Lett 12, 1163-66 (2002). The length of the most extended neurite of the whole cellular body was measured and calculated by using software programs Lumina Vision and Mac-SCOPE, according to the above-mentioned method described in Y. Fukuyama et al. (2002). The morphometric analyses were performed by measuring the length of the longest neurite from each neuron using Lumina Vision and Mac-Scope software (Yoshiyasu Fukuyama et al. 2002).

Series [2] deals with symptoms of diabetic polyneuropathy and sciatic pain. The note with it: cited from earlier work.
Series [3] deals with cultured rat cortical neurons. To be noted: primary cultures; cited from earlier work.

Entries after “also recorded” stand apart in the source; their conditions may differ.

In the case of “Culture B: Human recombinant fibroblast growth factors (bFGF), 40 ng mL−1, supplied by Upstate Biotechnology”, in series [1], the “Increase respect to control (culture A)” value was 1.05 and the “Increase of average neurite length” value was 295 (p = ns) μm.

For the compound `O=C(O)CCCCC1CCSS1` (stereo not drawn) [Culture G, alpha-lipoic acid], in series [1], the “Increase respect to control (culture A)” value amounted to 1.01, the “Increase of average neurite length” value was 285 (p = ns) μm and the “Effect on neurite extension/length (in words)” value is “stimulated neurite growth in a negligible way”. Moreover, the “Side effects such as nausea, vomiting and dizziness” value in series [2] (daily doses 600, 1200 and 1800 mg) was “dose-dependent increase of the side effects”. In addition, the “Daily dose providing the best risk/benefit ratio” value in series [2] (treatment of symptoms of diabetic polyneuropathy and sciatic pain) is on record as 600 mg.

For the compound `C=CCc1ccc(O)c(-c2ccc(O)c(CC=C)c2)c1` [Culture H, honokiol], in series [1], the “Increase respect to control (culture A)” value worked out at 1.02, the “Increase of average neurite length” value is listed as 287 (p = ns) μm and the “Effect on neurite extension/length (in words)” value was “stimulated neurite growth in a negligible way”. Moreover, in series [3], the “Neurite growth and neuron survival (in words)” value was “able to promote neurite growth; also recorded: capable of increasing the survival and development of neurons”.
